Data as given in paper PMC8343220, “The selectivity of α‐adrenoceptor agonists for the human α1A, α1B, and α1D‐adrenoceptors” (Pharmacology Research & Perspectives, 2021).
Like-named read-outs stand apart in the source and are kept apart here. Marks after values point to notes of the source that are not given here.

Key:
human α1B‐adrenoceptor [1] = target: T1, human α1B‐adrenoceptor (Homo sapiens, UniProt P35368); experiment: ERK1/2‐phosphorylation (Surefire Alphascreen), CHO‐α1B cells; assay type: cell-based
T1 construct: expressed in transfected cells; host or cells: CHO-K1
T1 sequence (P35368 1-520): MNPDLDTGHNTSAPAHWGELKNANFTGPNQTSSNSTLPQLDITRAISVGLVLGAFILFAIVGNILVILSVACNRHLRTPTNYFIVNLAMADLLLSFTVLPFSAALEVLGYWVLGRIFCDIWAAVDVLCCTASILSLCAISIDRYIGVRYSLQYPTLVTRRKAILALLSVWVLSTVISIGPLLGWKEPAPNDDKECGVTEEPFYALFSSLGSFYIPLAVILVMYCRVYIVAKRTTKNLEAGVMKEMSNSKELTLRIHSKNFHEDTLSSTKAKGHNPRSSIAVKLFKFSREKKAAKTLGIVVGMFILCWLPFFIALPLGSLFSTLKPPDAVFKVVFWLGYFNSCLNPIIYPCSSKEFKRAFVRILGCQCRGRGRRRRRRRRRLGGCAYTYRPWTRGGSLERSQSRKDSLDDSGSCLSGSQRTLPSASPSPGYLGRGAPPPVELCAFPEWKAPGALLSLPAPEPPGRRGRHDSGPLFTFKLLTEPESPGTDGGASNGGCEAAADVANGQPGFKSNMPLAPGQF

human α1A‐adrenoceptor [2] = target: T2, human α1A‐adrenoceptor (Homo sapiens, UniProt P35348); experiment: Intracellular free calcium mobilization, CHO‐α1A cells; assay type: cell-based
T2 construct: expressed in transfected cells; host or cells: CHO-K1
T2 sequence (P35348 1-466): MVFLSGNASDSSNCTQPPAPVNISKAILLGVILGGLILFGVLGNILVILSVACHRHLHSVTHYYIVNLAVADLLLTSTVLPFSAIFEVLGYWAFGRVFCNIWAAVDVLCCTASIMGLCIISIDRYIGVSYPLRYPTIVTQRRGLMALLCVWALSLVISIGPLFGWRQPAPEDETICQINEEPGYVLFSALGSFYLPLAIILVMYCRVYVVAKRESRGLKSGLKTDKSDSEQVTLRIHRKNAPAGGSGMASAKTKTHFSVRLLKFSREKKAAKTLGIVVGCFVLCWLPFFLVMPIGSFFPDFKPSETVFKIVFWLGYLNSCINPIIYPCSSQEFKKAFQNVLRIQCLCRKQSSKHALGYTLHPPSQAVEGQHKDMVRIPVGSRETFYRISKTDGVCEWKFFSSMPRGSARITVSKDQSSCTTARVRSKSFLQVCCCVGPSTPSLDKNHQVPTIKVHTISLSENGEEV

human α1A‐adrenoceptor [3] = target: T2, human α1A‐adrenoceptor; experiment: ERK1/2‐phosphorylation (Surefire Alphascreen), CHO‐α1A cells; assay type: cell-based
[4] = test system: parental CHO cell line without any transfected receptors; experiment: ERK1/2‐phosphorylation, parent CHO cells without transfected receptors; assay type: cell-based, Chinese hamster
human α1B‐adrenoceptor [5] = target: T1, human α1B‐adrenoceptor; experiment: Intracellular free calcium mobilization, CHO‐α1B cells; assay type: cell-based
[6] = test system: parental CHO cell line without any transfected receptors; experiment: Forskolin‐stimulated cAMP accumulation, parent CHO cells without transfected receptors; assay type: cell-based, Chinese hamster
[7] = target: T3, human α1D‐adrenoceptor (full length) (Homo sapiens, UniProt P25100); experiment: Intracellular free calcium mobilization, CHO‐α1D cells; assay type: cell-based
T3 construct: human α1D‐adrenoceptor (full length) were used; expressed in transfected cells; host or cells: CHO-K1
T3 sequence (P25100 1-572): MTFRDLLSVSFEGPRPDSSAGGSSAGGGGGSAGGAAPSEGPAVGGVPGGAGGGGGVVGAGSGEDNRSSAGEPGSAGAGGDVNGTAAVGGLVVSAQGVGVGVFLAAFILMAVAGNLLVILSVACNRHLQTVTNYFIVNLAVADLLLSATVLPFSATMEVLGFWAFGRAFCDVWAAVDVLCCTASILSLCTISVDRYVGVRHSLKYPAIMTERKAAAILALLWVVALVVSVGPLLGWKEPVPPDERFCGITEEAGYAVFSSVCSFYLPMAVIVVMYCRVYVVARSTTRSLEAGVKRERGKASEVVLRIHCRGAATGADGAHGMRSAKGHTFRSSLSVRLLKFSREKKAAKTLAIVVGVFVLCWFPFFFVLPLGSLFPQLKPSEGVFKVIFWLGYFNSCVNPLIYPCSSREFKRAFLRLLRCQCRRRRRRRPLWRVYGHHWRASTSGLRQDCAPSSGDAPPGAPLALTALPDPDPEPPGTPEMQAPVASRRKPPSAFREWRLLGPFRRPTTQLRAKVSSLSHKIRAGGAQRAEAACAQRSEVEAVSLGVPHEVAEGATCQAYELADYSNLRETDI

human α1A‐adrenoceptor [8] = target: T2, human α1A‐adrenoceptor; experiment: ^3H‐cAMP accumulation, CHO‐α1A cells; assay type: cell-based; conditions: CHO‐α1A cells; % of 10 µM forskolin response
[9] = test system: parental CHO cell line without any transfected receptors; experiment: Intracellular calcium mobilization, parent CHO cells without transfected receptors; assay type: cell-based, Chinese hamster; conditions: Cricetulus griseus, read-out: Intracellular calcium release % ionomycin
[10] = target: T3, human α1D‐adrenoceptor (full length); experiment: ERK1/2‐phosphorylation (Surefire Alphascreen), CHO‐α1D cells; assay type: cell-based
human α1B‐adrenoceptor [11] = target: T1, human α1B‐adrenoceptor; experiment: ^3H‐cAMP accumulation, CHO‐α1B cells; assay type: cell-based; conditions: CHO‐α1B cells; % forskolin maximum response
human α1A‐adrenoceptor [12] = target: T2, human α1A‐adrenoceptor; experiment: ^3H‐prazosin whole‐cell radioligand binding, CHO‐α1A cells
human α1B‐adrenoceptor [13] = target: T1, human α1B‐adrenoceptor; experiment: ^3H‐prazosin whole‐cell radioligand binding, CHO‐α1B cells
[14] = target: T3, human α1D‐adrenoceptor (full length); experiment: ^3H‐prazosin whole‐cell radioligand binding, CHO‐α1D cells
[15] = CHO cells without transfected receptors, response at maximum concentration used (c2), as % of ionomycin (10μM) response, mean ± s.e.m.

## CC(CCc1ccccc1)NCC(O)c1ccc(O)c(C(N)=O)c1 (stereo not drawn) [Labetolol]
Human α1B‐adrenoceptor [1]
  ERK1/2‐phosphorylation % PDBu: 22.9 ± 6.3%
Human α1A‐adrenoceptor [2]
  Intracellular calcium release % ionomycin: 36.9 ± 3.7%
Human α1A‐adrenoceptor [3]
  ERK1/2‐phosphorylation % PDBu: 71.3 ± 5.2%
[4]; Cricetulus griseus, CHO, read-out: ERK1/2-phosphorylation Log EC50 (converted)
  EC50: 2.4 µM
[4]; Cricetulus griseus, CHO cells without transfected receptors, maximal response as % of PDBu (10μM) response, mean ± s.e.m., read-out: ERK1/2-phosphorylation % PDBu
  Emax: 25.9 ± 3.4%
[4]; untransfected cells
  ERK1/2‐phosphorylation response in parent CHO cells: stimulated ERK1/2‐phosphorylation responses
Human α1B‐adrenoceptor [5]
  Intracellular calcium release % Ionomycin at 100 µM: 2.5 ± 1.2%
[6]
  cAMP accumulation (in presence of forskolin) Log EC50: No response
[7]
  Intracellular calcium release % Ionomycin at 100 µM: 8.1 ± 1.6%
Human α1A‐adrenoceptor [8]
  cAMP accumulation % forskolin: 4.5 ± 0.6%
[9]; [15]
  Emax: 10.3 ± 3.1%
[10]
  ERK1/2‐phosphorylation % PDBu at 100 µM: 36.5 ± 5.2 ^a %
Human α1B‐adrenoceptor [11]
  cAMP accumulation % forskolin: No response

## Cc1cccc(C)c1N=C1NCCCS1 [Xylazine]
Human α1B‐adrenoceptor [1]
  EC50: 6.76 µM
  ERK1/2‐phosphorylation % PDBu: 26.4 ± 5.8%
Human α1A‐adrenoceptor [2]
  EC50: 1.2 µM
  Intracellular calcium release % ionomycin: 45.1 ± 2.2%
  Log efficacy ratio KD /EC50: 1.44
Human α1A‐adrenoceptor [3]
  EC50: 2.04 µM
  ERK1/2‐phosphorylation % PDBu: 78.6 ± 5.8%
[4]
  ERK1/2-phosphorylation % PDBu: No response
  ERK1/2-phosphorylation Log EC50: No response
Human α1B‐adrenoceptor [5]
  EC50: 4.68 µM
  Intracellular calcium release % ionomycin: 30.4 ± 3.9%
  Log efficacy ratio KD /EC50: 2.11
[7]
  Intracellular calcium release % Ionomycin at 100 µM: 3.8 ± 0.8%
Human α1A‐adrenoceptor [12]
  Affinity selectivity ratio α1A vs α1B: 18.2 fold
  Kd: 33.1 µM
Human α1B‐adrenoceptor [13]
  Kd: 603 µM
[9]; CHO
  Emax: 2.3 ± 0.3%
[10]
  ERK1/2‐phosphorylation % PDBu: No response
  ERK1/2‐phosphorylation Log EC50: No response
[14]
  Affinity selectivity ratio α1A vs α1D: 1.2 fold
  Affinity selectivity ratio α1B vs α1D: 21.9 fold
  Kd: 27.5 µM

## Cc1cccc(Cc2c[nH]cn2)c1C [Detomidine]
Human α1B‐adrenoceptor [1]
  ERK1/2‐phosphorylation % PDBu: 31.5 ± 5.4%
Human α1A‐adrenoceptor [3]
  ERK1/2‐phosphorylation % PDBu: 84.2 ± 3.8%
[4]; Cricetulus griseus, CHO, read-out: ERK1/2-phosphorylation % PDBu at 100μM
  Emax at 100 µM: 6.1 ± 4%
[6]; CHO cells without transfected receptors, response at 100μM only, EC50 not obtainable, % of forskolin-stimulated cAMP
  cAMP accumulation (in presence of forskolin) % forskolin-stim cAMP at 100μM: 83.2 ± 4.9%
Human α1A‐adrenoceptor [8]
  cAMP accumulation % forskolin: 17.3 ± 1.9%
[9]; [15]
  Emax: 4.3 ± 1.7%
[10]
  ERK1/2‐phosphorylation % PDBu at 100 µM: 12.3 ± 2.4%
Human α1B‐adrenoceptor [11]
  cAMP accumulation % forskolin: 2.8 ± 0.6%
[14]; 3H‐prazosin binding Log KD, CHO‐α1D cells, whole‐cell binding (from Table 1), log values given negative
  Kd: 0.977 µM
[14]; CHO‐α1D cells, given as log KD (negative), mean ± SEM, 'early plateau' = specific binding not fully inhibited
  Kd: 0.977 µM
